The source of these data is PubChem BioAssay (NCI).

The structures appear in SMILES notation.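 How tested: cells in 96-well plates exposed to compound for 48 hours at five concentrations. GI50 marks 50% less growth. TGI is the concentration that stops growth completely.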

Test systems include MOLT-4 leukemia; NCI-H522 lung; SN12C renal; PC-3 prostate; OVCAR-8 ovarian; UO-31 renal; A498 renal; NCI-H226 lung; IGROV1 ovarian; MALME-3M melanoma.
Holding throughout (assay): NCI tumour cell line growth inhibition, 48 h

As to `COc1cc2c(cc1OCCN1CCN(CCN3C(=O)c4cccc5cccc(c45)C3=O)CC1)N=C[C@@H]1CCCN1C2=O`, the GI50 in the assay on MOLT-4 leukemia was 24.6 µM; in the assay on NCI-H522 lung, 18.8 µM; with SN12C renal, 23.2 µM; in the assay on PC-3 prostate, 18.1 µM; with OVCAR-8 ovarian, 19.9 µM; in the assay with UO-31 renal, 18.5 µM. The values for the GI50 with A498 renal, with NCI-H226 lung and with IGROV1 ovarian were 20.5 µM, 20.1 µM and 19.2 µM, respectively. In addition, the TGI in the assay on MOLT-4 leukemia was determined as 62.2 µM; in the assay with NCI-H522 lung, 34.8 µM; with SN12C renal, 58.6 µM; with PC-3 prostate it was 32 µM; in the assay on OVCAR-8 ovarian, 44.3 µM; with UO-31 renal, 32.5 µM. Moreover, the TGI turned out to be 40.4 µM in the assay on A498 renal, 40.3 µM in the assay on NCI-H226 lung and 36.9 µM in the assay on IGROV1 ovarian.
As to `N#C[Se]CCN1C(=O)c2ccccc2C1=O`, the GI50 was 1.82 µM with MALME-3M melanoma; 2.01 µM with MOLT-4 leukemia; 4.72 µM in the assay on NCI-H522 lung; 2.69 µM with SN12C renal; 1.74 µM in the assay with PC-3 prostate; 2.66 µM in the assay with OVCAR-8 ovarian. Also, the GI50 with UO-31 renal was 2.09 µM; with NCI-H226 lung, 1.6 µM; with IGROV1 ovarian, 2.02 µM. Besides, the TGI in the assay with MALME-3M melanoma came out at 13.4 µM; in the assay on MOLT-4 leukemia, 23.9 µM; with NCI-H522 lung it was 21.9 µM; with SN12C renal, 10.9 µM; with PC-3 prostate, 8.27 µM; with OVCAR-8 ovarian, 8.26 µM. Further, the results for the TGI in the assay with UO-31 renal, in the assay on NCI-H226 lung and in the assay with IGROV1 ovarian were 7.92 µM, 3.82 µM and 6.12 µM, respectively.
`COc1cc2c(cc1C)NC(=O)/C2=C\c1ccc(Oc2ccccc2)cc1`: the GI50 in the assay with MALME-3M melanoma was 20.1 µM; with NCI-H522 lung, 12.4 µM; with SN12C renal it was 14.4 µM; in the assay with PC-3 prostate, 12.4 µM; with OVCAR-8 ovarian, 22.8 µM; in the assay with UO-31 renal it was 14.8 µM. Further, the GI50 with A498 renal was 13.9 µM; with NCI-H226 lung, 16.7 µM; with IGROV1 ovarian it was 15.7 µM. Further, the TGI in the assay with MALME-3M melanoma came out at 41.1 µM; in the assay on NCI-H522 lung, 42 µM; in the assay on SN12C renal, 27.5 µM; in the assay on PC-3 prostate, 29.8 µM; with OVCAR-8 ovarian, 64.6 µM; in the assay with UO-31 renal, 30.9 µM. Also, the figures for the TGI with A498 renal, with NCI-H226 lung and in the assay on IGROV1 ovarian were 26.8 µM, 32.6 µM and 36.9 µM, respectively.
For `O=S(=O)(O)C(c1ccccc1)C(O)c1ccccc1` (stereo not drawn), the TGI with MALME-3M melanoma, in the assay on NCI-H522 lung, in the assay with SN12C renal, with PC-3 prostate, with OVCAR-8 ovarian and in the assay on UO-31 renal was above 100 µM throughout. Also, the TGI in the assay on A498 renal, in the assay with NCI-H226 lung and in the assay on IGROV1 ovarian was above 100 µM each time.
As for `CC1(C)CC2=NO[Se]3=C2C(=NO3)C1`, the TGI in the assay on MOLT-4 leukemia was determined as 9.41 µM; with NCI-H522 lung, 5.46 µM; in the assay on SN12C renal, 13 µM; in the assay with PC-3 prostate, 3.24 µM; with OVCAR-8 ovarian, 16.4 µM; in the assay with UO-31 renal it was 8.73 µM. Further, the results for the TGI in the assay with A498 renal, in the assay on NCI-H226 lung and in the assay on IGROV1 ovarian were 10.4 µM, 11.6 µM and 6.43 µM, respectively.
As to `NS(=O)(=O)c1cc2c(cc1Cl)NCNS2(=O)=O`, the TGI with MALME-3M melanoma, in the assay on MOLT-4 leukemia, with NCI-H522 lung, in the assay with SN12C renal, in the assay on PC-3 prostate and with OVCAR-8 ovarian was above 100 µM throughout. Further, the TGI with UO-31 renal, with NCI-H226 lung and with IGROV1 ovarian was above 100 µM in each case.
As to `COc1ccc(C(C)Nc2cc(OC)c(OC)c(OC)c2)cc1` (stereo not drawn), the TGI in the assay on MALME-3M melanoma is above 29.7 µM; in the assay with MOLT-4 leukemia, above 100 µM; in the assay with NCI-H522 lung, 17.6 µM; in the assay with SN12C renal, above 100 µM; in the assay with OVCAR-8 ovarian, above 100 µM; with UO-31 renal, above 100 µM. The TGI in the assay on A498 renal, with NCI-H226 lung and in the assay with IGROV1 ovarian was above 100 µM in each case.
With `C=CCN(CC=C)Cc1c[nH]c2ccccc12`, the GI50 with MALME-3M melanoma was 7.83 µM; in the assay with MOLT-4 leukemia it was 72.7 µM; in the assay on NCI-H522 lung, 14.9 µM; with SN12C renal, 16 µM; in the assay with PC-3 prostate it was 32.4 µM; in the assay on OVCAR-8 ovarian, 11.9 µM. The GI50 was 35.2 µM in the assay with UO-31 renal and 16 µM in the assay on IGROV1 ovarian. The TGI in the assay on MALME-3M melanoma is 67.7 µM; in the assay on MOLT-4 leukemia, above 100 µM; with NCI-H522 lung, 33.8 µM; in the assay with SN12C renal, 41.8 µM; in the assay with PC-3 prostate, above 100 µM; in the assay with OVCAR-8 ovarian, 69 µM. For the same molecule, the results for the TGI with UO-31 renal and in the assay on IGROV1 ovarian were above 100 µM and 42.6 µM, respectively.
As to `COC1=CC(=O)C(O)=C(CC2(C)C(C)CCC3(C)C2CCCC3(C)C)C1=O` (stereo not drawn), the TGI with MALME-3M melanoma was determined as 13.4 µM; in the assay with MOLT-4 leukemia it was 18.5 µM; in the assay with NCI-H522 lung it was 13 µM; with SN12C renal, 15.3 µM; in the assay on OVCAR-8 ovarian it was 26.2 µM; in the assay on UO-31 renal it was 17.2 µM. The TGI is 22.1 µM in the assay with A498 renal, 9.91 µM in the assay on NCI-H226 lung and 28.5 µM in the assay on IGROV1 ovarian.
Turning to `CN(C)CCCC1(c2ccc(F)cc2)OCc2cc(-c3csc4ccccc34)ccc21` (stereo not drawn), the GI50 with MALME-3M melanoma was 1.43 µM; in the assay on MOLT-4 leukemia it was 1.79 µM; in the assay with NCI-H522 lung, 1.65 µM; with SN12C renal, 1.63 µM; in the assay with PC-3 prostate, 1.73 µM; with OVCAR-8 ovarian it was 1.87 µM. The GI50 in the assay with UO-31 renal was 1.25 µM; with NCI-H226 lung it was 1.8 µM; with IGROV1 ovarian, 1.35 µM. Further, the TGI in the assay on MALME-3M melanoma was determined as 2.94 µM; with MOLT-4 leukemia, 3.52 µM; in the assay with NCI-H522 lung, 3.48 µM; in the assay with SN12C renal it was 3.13 µM; with PC-3 prostate it was 3.29 µM; in the assay with OVCAR-8 ovarian, 3.84 µM. Further, the TGI is 2.62 µM in the assay on UO-31 renal, 3.52 µM in the assay on NCI-H226 lung and 2.96 µM with IGROV1 ovarian.
